From US5567692A, “9-[(substituted glycyl) amido)]-6-demethyl-6-deoxytetracyclines” (priority 1995, dated 1996)
Counter-ions that a name gives are not always drawn. Like-named read-outs stand apart in the source and are kept apart here.

Assays:
E. coli UBMS 88-1 Tet B = assay: microbe, parasite or virus in culture; type: cell-based; conditions: Escherichia coli, UBMS881TETB, 18 h
E. coli J3272 Tet sens = assay: MIC, agar dilution; type: cell-based; conditions: Escherichia coli, J3272TETSENS, 18 h
E. coli PRP1 Tet A = assay: microbe, parasite or virus in culture; type: cell-based; conditions: Escherichia coli, PRP1TETA, 18 h
[1] = system: E. coli MC 4100 TNIOC Tet B; assay: microbe, parasite or virus in culture; type: cell-based; conditions: Escherichia coli, 18 h
E. coli J3272 Tet C = assay: microbe, parasite or virus in culture; type: cell-based; conditions: Escherichia coli, J3272TETC, 18 h
E. coli UBMS 89-1 Tet M = assay: microbe, parasite or virus in culture; type: cell-based; conditions: Escherichia coli, UBMS891TETM, 18 h
[2] = system: E. coli UBMS 89-2 Tet sens.; assay: MIC, agar dilution; type: cell-based; conditions: Escherichia coli, 18 h
E. coli J2175 = assay: MIC, agar dilution; type: cell-based; conditions: Escherichia coli, 18 h, read-out: MIC
E. coli BAJ9003 IMP MUT = assay: microbe, parasite or virus in culture; type: cell-based; conditions: Escherichia coli, BAJ9003IMPMUT, 18 h
E. coli UBMS 90-4 Tet M = assay: microbe, parasite or virus in culture; type: cell-based; conditions: Escherichia coli, UBMS904TETM, 18 h
E. coli UBMS 90-5 = assay: microbe, parasite or virus in culture; type: cell-based; conditions: Escherichia coli, UBMS905, 18 h, E. coli UBMS 90-5; read-out: MIC
E. coli #311 (MP) = assay: MIC, agar dilution; type: cell-based; conditions: Escherichia coli, 18 h
E. coli ATCC 25922 = assay: MIC, agar dilution; type: cell-based; conditions: Escherichia coli, ATCC25922, 18 h
E. coli J3272 Tet D = assay: microbe, parasite or virus in culture; type: cell-based; conditions: Escherichia coli, J3272TETD, 18 h
S. marcescens FPOR 8733 = assay: MIC, agar dilution; type: cell-based; conditions: Serratia marcescens, FPOR8733, 18 h
[3] = system: X. maltophilia NEMC 87210; assay: MIC, agar dilution; type: cell-based; conditions: Stenotrophomonas maltophilia, NEMC87210, 18 h
[4] = system: Ps. aeruginosa ATCC 27853; assay: MIC, agar dilution; type: cell-based; conditions: Pseudomonas aeruginosa, ATCC27853, 18 h, Ps. aeruginosa ATCC 27853; read-out: MIC
S. aureus NEMC 8769 = assay: MIC, agar dilution; type: cell-based; conditions: Staphylococcus aureus, NEMC8769, 18 h
S. aureus UBMS 88-4 = assay: MIC, agar dilution; type: cell-based; conditions: Staphylococcus aureus, UBMS884, 18 h, S. aureus UBMS 88-4
[5] = system: S. aureus UBMS 88-5 Tet M; assay: microbe, parasite or virus in culture; type: cell-based; conditions: Staphylococcus aureus, UBMS885TETM, 18 h
[6] = system: S. aureus UBMS 88-7 Tet K; assay: microbe, parasite or virus in culture; type: cell-based; conditions: Staphylococcus aureus, UBMS887TETK, 18 h
[7] = system: S. aureus UBMS 90-1 Tet M; assay: microbe, parasite or virus in culture; type: cell-based; conditions: Staphylococcus aureus, UBMS901TETM, 18 h
S. aureus UBMS 90-3 = assay: MIC, agar dilution; type: cell-based; conditions: Staphylococcus aureus, UBMS903, 18 h
[8] = system: S. aureus UBMS 90-2 Tet M; assay: microbe, parasite or virus in culture; type: cell-based; conditions: Staphylococcus aureus, UBMS902TETM, 18 h
S. aureus IVES 2943 = assay: MIC, agar dilution; type: cell-based; conditions: Staphylococcus aureus, IVES2943, 18 h
S. aureus ROSE (MP) = assay: MIC, agar dilution; type: cell-based; conditions: Staphylococcus aureus, 18 h
S. aureus SMITH (MP) = assay: MIC, agar dilution; type: cell-based; conditions: Staphylococcus aureus, 18 h
S. aureus IVES 1983 = assay: MIC, agar dilution; type: cell-based; conditions: Staphylococcus aureus, IVES1983, 18 h
S. aureus ATCC 29213 = assay: MIC, agar dilution; type: cell-based; conditions: Staphylococcus aureus, ATCC29213, 18 h
[9] = system: S. hemolyticus AVHAH 88-3; assay: MIC, agar dilution; type: cell-based; conditions: Streptococcus pyogenes, AVHAH883, 18 h
Enterococcus 12201 = assay: MIC, agar dilution; type: cell-based; conditions: Enterococcus, 12201, 18 h
E. faecalis ATCC 29212 = assay: MIC, agar dilution; type: cell-based; conditions: Enterococcus faecalis, ATCC29212, 18 h
[10] = system: Staphylococcus aureus strain Smith (tetracycline sensitive); assay: Acute lethal infection in mice, S. aureus Smith; type: in vivo; conditions: for ED50: Staphylococcus aureus, 168 h, mice, S. aureus Smith (Sens), 7 day survival, read-out: ED50
[11] = S. aureus IVES 2943, read-out: MIC

Compound	MIC (E. coli UBMS 88-1 Tet B) [µg/mL]	MIC (E. coli J3272 Tet sens) [µg/mL]	MIC (E. coli PRP1 Tet A) [µg/mL]	MIC [1] [µg/mL]	MIC (E. coli J3272 Tet C) [µg/mL]	MIC (E. coli UBMS 89-1 Tet M) [µg/mL]	MIC [2] [µg/mL]	MIC (E. coli J2175) [µg/mL]	MIC (E. coli BAJ9003 IMP MUT) [µg/mL]	MIC (E. coli UBMS 90-4 Tet M) [µg/mL]	MIC (E. coli UBMS 90-5) [µg/mL]	MIC (E. coli #311 (MP)) [µg/mL]	MIC (E. coli ATCC 25922) [µg/mL]	MIC (E. coli J3272 Tet D) [µg/mL]	MIC (S. marcescens FPOR 8733) [µg/mL]	MIC [4] [µg/mL]	MIC [6] [µg/mL]	MIC [7] [µg/mL]	MIC [8] [µg/mL]	MIC (S. aureus SMITH (MP)) [µg/mL]	further results
CCCCNCC(=O)Nc1ccc2c(c1O)C(=O)C1=C(O)[C@]3(O)C(=O)C(C(N)=O)=C(O)[C@@H](N(C)C)C3CC1C2 (stereo partly drawn) [H, [4S-(4alpha,12aalpha)]-9-[[(Butylamino)acetyl]amino]-4-(dimethylamino)-1,4,4a,5,5a,6,11,12a-octahydro-3,10,12,12a-tetrahydroxy-1,11-dioxo-2-naphthacenecarboxamide dihydrochloride]	0.25	0.12	0.25	0.25	0.12	0.12	0.12	0.25	0.06	0.12	0.12	0.12	0.12	0.06	2	8	1	0.12	0.12	0.12	MIC [3]: 1 µg/mL; MIC (S. aureus NEMC 8769): 0.03 µg/mL; MIC (S. aureus UBMS 88-4): 0.06 µg/mL; MIC ([5]; S. aureus UBMS 88-5 Tet M): 0.06 µg/mL; MIC (S. aureus UBMS 90-3): 0.03 µg/mL; MIC (S. aureus IVES 2943; [11]): 1 µg/mL; MIC (S. aureus ROSE (MP); read-out: MIC): 4 µg/mL; MIC (S. aureus IVES 1983): 2 µg/mL; MIC (S. aureus ATCC 29213): 0.06 µg/mL; MIC [9]: 0.5 µg/mL; MIC (Enterococcus 12201): 0.12 µg/mL; MIC (E. faecalis ATCC 29212; E. faecalis ATCC 29212, read-out: MIC): 0.12 µg/mL; ED50 ([10]; iv, Intraveneous): 0.5 to 1 mg/kg; ED50 ([10]; po, Oral): > 16 mg/kg; in vivo activity (in words) ([10]; tested intravenously against the minocycline sensitive organism S. aureus Smith): very good in vivo activity
CN(C)[C@@H]1C(O)=C(C(N)=O)C(=O)[C@@]2(O)C(O)=C3C(=O)c4c(ccc(NC(=O)CBr)c4O)CC3CC12 (stereo partly drawn) [R, [4S-(4alpha,12aalpha)]-9-((Bromoacetyl)amino]-4-(dimethylamino)-1,4,4a,5,5a,6,11,12a-octahydro-3,10,12,12a-tetrahydroxy-1,11-dioxo-2-naphthacenecarboxamide monohydrochloride]	> 32	32	> 32	> 32	> 32	8	32	32	1	32	32	16	16	> 32	> 32	> 32	8	1	2	1	MIC [3]: 16 µg/mL; MIC (S. aureus NEMC 8769; read-out: MIC): 0.25 µg/mL; MIC (S. aureus UBMS 88-4; read-out: MIC): 0.5 µg/mL; MIC [5]: 2 µg/mL; MIC (S. aureus UBMS 90-3): 1 µg/mL; MIC (S. aureus IVES 2943): 16 µg/mL; MIC (S. aureus ROSE (MP)): 16 µg/mL; MIC (S. aureus IVES 1983): 16 µg/mL; MIC (S. aureus ATCC 29213; S. aureus ATCC 29213): 1 µg/mL; MIC [9]: 8 µg/mL; MIC (Enterococcus 12201): 4 µg/mL; MIC (E. faecalis ATCC 29212): 2 µg/mL
CC(Br)C(=O)Nc1ccc2c(c1O)C(=O)C1=C(O)[C@]3(O)C(=O)C(C(N)=O)=C(O)[C@@H](N(C)C)C3CC1C2 (stereo partly drawn) [S, [4S-(4alpha,12aalpha)]-9-[(2-Bromo-1-oxopropyl)amino]-4-(dimethylamino)-1,4,4a,5,5a,6,11,12a-octahydro-3,10,12,12a-tetrahydroxy-1,11-dioxo-2-naphthacenecarboxamide dihydrochloride]	> 32	4	> 32	> 32	> 32	> 32	16	16	1	> 32	8	8	8	> 32	> 32	> 32	16	32	16	1	MIC ([3]; X. maltophilia NEMC 87210, read-out: MIC): 16 µg/mL; MIC (S. aureus NEMC 8769; read-out: MIC): 0.25 µg/mL; MIC (S. aureus UBMS 88-4; read-out: MIC): 2 µg/mL; MIC [5]: 32 µg/mL; MIC (S. aureus UBMS 90-3; S. aureus UBMS 90-3, read-out: MIC): 2 µg/mL; MIC (S. aureus IVES 2943; [11]): 32 µg/mL; MIC (S. aureus ROSE (MP)): > 32 µg/mL; MIC (S. aureus IVES 1983; S. aureus IVES 1983, read-out: MIC): 32 µg/mL; MIC (S. aureus ATCC 29213; S. aureus ATCC 29213, read-out: MIC): 2 µg/mL; MIC [9]: 8 µg/mL; MIC (Enterococcus 12201): 32 µg/mL; MIC (E. faecalis ATCC 29212): 16 µg/mL
